According to ChEMBL document CHEMBL1250549, “N-phenyl-N'-[4-(5H-pyrrolo[3,2-d]pyrimidin-4-yloxy)phenyl]ureas as novel inhibitors of VEGFR and FGFR kinases” (Bioorg Med Chem, 2010):
pIC50: −log10 of the molar value. Converted amounts (≈) assume the structure as drawn.

Columns and labels:
[1] = target: Vascular endothelial growth factor receptor 2 (Homo sapiens, UniProt P35968); experiment: Inhibition of His-tagged human VEGFR2 expressed in Sf9 cells
Angiopoietin-1 receptor = Angiopoietin-1 receptor (Homo sapiens, UniProt Q02763); experiment: Inhibition of Tie-2
[2] = target: T1, Fibroblast growth factor receptor 1 (Homo sapiens, UniProt P11362); experiment: Inhibition of FGFR1
[3] = Inhibition of VEGFR
[4] = Inhibition of PDGFR
[5] = target: T1, Fibroblast growth factor receptor 1; experiment: Inhibition of His-tagged human FGFR1 expressed in Sf9 cells
[6] = Solubility of the compound at pH 6.8; format: physicochemical; details: buffer
HUVEC [7] = experiment: Antiproliferative activity against HUVEC cells assessed as inhibition of FGF-stimulated proliferation after 5 days by WST-8 assay; details: Homo sapiens, 120 h
HUVEC [8] = experiment: Antiproliferative activity against HUVEC cells assessed as inhibition of VEGF-stimulated proliferation after 5 days by WST-8 assay; details: Homo sapiens, 120 h

Chain of Vascular endothelial growth factor receptor 2 (P35968 whole entry): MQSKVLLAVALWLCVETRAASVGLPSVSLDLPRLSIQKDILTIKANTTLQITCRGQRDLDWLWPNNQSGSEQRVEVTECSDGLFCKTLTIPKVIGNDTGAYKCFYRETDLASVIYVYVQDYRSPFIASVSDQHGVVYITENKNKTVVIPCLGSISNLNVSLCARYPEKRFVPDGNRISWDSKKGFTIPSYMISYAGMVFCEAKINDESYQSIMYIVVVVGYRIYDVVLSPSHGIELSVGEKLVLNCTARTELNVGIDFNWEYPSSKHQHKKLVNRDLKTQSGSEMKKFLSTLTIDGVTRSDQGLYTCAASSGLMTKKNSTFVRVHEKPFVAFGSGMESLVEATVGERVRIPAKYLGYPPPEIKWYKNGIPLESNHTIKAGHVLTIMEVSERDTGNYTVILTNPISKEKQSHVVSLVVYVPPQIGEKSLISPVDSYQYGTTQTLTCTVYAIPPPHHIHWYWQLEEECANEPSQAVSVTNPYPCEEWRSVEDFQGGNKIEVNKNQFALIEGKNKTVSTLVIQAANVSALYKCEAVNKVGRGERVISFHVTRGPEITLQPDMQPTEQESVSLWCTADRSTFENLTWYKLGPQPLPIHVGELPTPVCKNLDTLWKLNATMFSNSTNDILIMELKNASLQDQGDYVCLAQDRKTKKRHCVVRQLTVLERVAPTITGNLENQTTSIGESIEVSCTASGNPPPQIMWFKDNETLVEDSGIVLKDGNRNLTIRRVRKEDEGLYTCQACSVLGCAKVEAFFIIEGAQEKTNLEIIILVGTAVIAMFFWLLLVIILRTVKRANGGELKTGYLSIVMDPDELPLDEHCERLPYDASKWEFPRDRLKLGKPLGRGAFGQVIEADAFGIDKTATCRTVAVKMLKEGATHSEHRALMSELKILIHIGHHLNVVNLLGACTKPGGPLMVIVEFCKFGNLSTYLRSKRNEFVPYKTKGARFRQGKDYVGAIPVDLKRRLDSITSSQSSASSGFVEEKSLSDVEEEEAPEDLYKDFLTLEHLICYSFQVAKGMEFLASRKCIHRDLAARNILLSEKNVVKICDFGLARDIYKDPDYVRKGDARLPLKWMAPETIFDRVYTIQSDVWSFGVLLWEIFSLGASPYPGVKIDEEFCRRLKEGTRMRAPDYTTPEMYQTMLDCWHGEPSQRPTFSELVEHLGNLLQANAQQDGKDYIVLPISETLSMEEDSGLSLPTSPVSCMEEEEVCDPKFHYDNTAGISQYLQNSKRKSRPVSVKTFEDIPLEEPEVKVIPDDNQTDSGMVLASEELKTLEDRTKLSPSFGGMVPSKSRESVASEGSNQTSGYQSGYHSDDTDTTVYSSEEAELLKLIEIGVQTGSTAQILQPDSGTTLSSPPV
T1 sequence (P11362 whole entry): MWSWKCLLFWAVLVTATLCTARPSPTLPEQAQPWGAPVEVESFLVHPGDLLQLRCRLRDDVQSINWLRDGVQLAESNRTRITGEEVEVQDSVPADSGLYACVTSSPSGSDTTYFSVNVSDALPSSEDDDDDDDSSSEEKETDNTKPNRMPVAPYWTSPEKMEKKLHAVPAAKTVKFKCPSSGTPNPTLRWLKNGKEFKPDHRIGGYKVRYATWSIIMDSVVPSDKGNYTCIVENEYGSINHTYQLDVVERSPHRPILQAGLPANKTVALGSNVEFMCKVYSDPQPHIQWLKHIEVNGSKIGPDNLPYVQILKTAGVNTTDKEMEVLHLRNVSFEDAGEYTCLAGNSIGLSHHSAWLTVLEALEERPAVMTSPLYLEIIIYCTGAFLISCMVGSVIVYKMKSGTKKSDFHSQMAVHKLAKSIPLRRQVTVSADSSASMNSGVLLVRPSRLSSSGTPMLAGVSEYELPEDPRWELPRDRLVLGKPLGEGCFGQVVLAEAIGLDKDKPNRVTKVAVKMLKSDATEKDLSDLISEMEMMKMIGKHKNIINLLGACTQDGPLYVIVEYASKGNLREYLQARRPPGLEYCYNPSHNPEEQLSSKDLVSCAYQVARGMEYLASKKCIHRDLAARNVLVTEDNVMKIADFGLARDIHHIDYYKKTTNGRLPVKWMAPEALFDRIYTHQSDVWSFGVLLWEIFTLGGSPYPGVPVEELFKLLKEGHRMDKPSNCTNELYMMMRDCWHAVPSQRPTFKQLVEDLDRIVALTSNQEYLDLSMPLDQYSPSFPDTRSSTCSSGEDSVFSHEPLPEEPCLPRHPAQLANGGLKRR
Chain of Angiopoietin-1 receptor (Q02763 whole entry): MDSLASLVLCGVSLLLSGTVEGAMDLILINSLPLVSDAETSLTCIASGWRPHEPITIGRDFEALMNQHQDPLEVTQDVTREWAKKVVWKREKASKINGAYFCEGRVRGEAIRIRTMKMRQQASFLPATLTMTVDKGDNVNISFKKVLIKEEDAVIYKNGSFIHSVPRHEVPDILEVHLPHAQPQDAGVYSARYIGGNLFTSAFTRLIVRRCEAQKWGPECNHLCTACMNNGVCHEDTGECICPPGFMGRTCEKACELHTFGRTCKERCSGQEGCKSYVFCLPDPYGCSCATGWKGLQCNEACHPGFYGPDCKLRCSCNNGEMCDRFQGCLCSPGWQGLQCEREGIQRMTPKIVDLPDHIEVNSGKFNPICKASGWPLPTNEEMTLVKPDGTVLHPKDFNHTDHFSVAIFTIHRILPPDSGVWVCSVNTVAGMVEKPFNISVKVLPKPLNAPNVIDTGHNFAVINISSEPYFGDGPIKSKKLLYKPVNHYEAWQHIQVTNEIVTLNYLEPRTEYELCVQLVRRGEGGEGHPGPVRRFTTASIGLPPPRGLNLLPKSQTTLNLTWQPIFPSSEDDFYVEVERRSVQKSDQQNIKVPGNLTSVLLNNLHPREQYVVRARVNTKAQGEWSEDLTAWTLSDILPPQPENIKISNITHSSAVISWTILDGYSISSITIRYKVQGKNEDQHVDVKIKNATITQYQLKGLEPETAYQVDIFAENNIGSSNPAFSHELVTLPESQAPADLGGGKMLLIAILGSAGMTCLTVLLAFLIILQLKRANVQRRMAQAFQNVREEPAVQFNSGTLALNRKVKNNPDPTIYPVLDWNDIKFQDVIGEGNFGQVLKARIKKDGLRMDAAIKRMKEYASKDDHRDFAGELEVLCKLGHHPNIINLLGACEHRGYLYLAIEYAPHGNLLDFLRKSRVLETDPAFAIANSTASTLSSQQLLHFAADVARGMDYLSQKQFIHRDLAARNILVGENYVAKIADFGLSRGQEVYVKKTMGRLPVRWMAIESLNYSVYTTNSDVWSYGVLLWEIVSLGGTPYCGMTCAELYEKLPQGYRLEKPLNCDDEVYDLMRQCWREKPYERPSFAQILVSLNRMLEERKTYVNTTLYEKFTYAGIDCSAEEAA

SMILES | pIC50 [1] | other results
Cn1ccc2ncnc(Oc3ccc(NC(=O)Nc4cc(C(C)(C)C)on4)c(Cl)c3)c21 | 8.05 | –
O=C(Nc1cccc(C(F)(F)F)c1)Nc1ccc(Oc2ncnc3ccn(CCOCCO)c23)cc1Cl | 8.57 | –
COCCn1ccc2ncnc(Oc3ccc(NC(=O)Nc4cccc(C(F)(F)F)c4)c(Cl)c3)c21 | 8.05 | –
O=C(Nc1cccc(C(F)(F)F)c1)Nc1ccc(Oc2ncnc3ccn(CCO)c23)cc1Cl | 8.40 | –
COCc1cc2ncnc(Oc3ccc(NC(=O)Nc4cccc(C(F)(F)F)c4)c(Cl)c3)c2n1C | 7.85 | –
Cn1c(C(C)(C)O)cc2ncnc(Oc3ccc(NC(=O)Nc4cccc(C(F)(F)F)c4)c(Cl)c3)c21 | 7.74 | –
Cn1ccc2ncnc(Oc3ccc(NC(=O)Nc4cccc(C(F)(F)F)c4)c(F)c3)c21 | – | pIC50 (Angiopoietin-1 receptor): > 7.00; pIC50 [2]: < 5.00; pIC50 [3]: > 7.00; pIC50 [4]: > 7.00; pIC50 [5]: < 5.00
Cn1ccc2ncnc(Oc3ccc(NC(=O)Nc4ccccn4)c(Cl)c3)c21 | 6.68 | pIC50 [5]: < 5.00
Cn1ccc2ncnc(Oc3ccc(NC(=O)Nc4cccnc4)c(Cl)c3)c21 | 6.64 | pIC50 [5]: < 5.00
Cn1ccc2ncnc(Oc3ccc(NC(=O)Nc4cccc(C(F)(F)F)c4)c(Cl)c3)c21 | – | solubility [6]: 0.09 µg/mL (≈ 0.195 µM); pIC50 (HUVEC [7]): 6.64
Cn1ccc2ncnc(Oc3ccc(NC(=O)Nc4ccncc4)c(Cl)c3)c21 | 6.19 | pIC50 [5]: < 5.00
Cn1ccc2ncnc(Oc3ccc(NC(=O)Nc4cc(C(F)(F)F)ccn4)c(Cl)c3)c21 | 8.57 | –
Cn1ccc2ncnc(Oc3ccc(NC(=O)Nc4cncc(C(F)(F)F)c4)c(Cl)c3)c21 | 8.54 | –
Cn1ccc2ncnc(Oc3ccc(NC(=O)Nc4ccnc(C(F)(F)F)c4)c(Cl)c3)c21 | 8.42 | –
Cn1ccc2ncnc(Oc3ccc(NC(=O)Nc4cnn(CC(F)(F)F)c4)c(Cl)c3)c21 | 8.40 | –
Cn1ccc2ncnc(Oc3ccc(NC(=O)Nc4cnn(C(C)(C)C)c4)c(Cl)c3)c21 | 8.12 | –
Cn1nc(C(C)(C)C)cc1NC(=O)Nc1ccc(Oc2ncnc3ccn(C)c23)cc1Cl | 7.72 | –
COc1ccc(NC(=O)Nc2ccc(Oc3ncnc4ccn(C)c34)cc2Cl)cc1C(F)(F)F | 8.03 | –
Cn1ccc2ncnc(Oc3ccc(NC(=O)Nc4ccc(N5CCOCC5)c(C(F)(F)F)c4)c(Cl)c3)c21 | 7.21 | –
Cn1ccc2ncnc(Oc3ccc(NC(=O)Nc4ccc(CN5CCOCC5)c(C(F)(F)F)c4)c(Cl)c3)c21 | 7.72 | –
CN1CCN(Cc2ccc(NC(=O)Nc3ccc(Oc4ncnc5ccn(C)c45)cc3Cl)cc2C(F)(F)F)CC1 | 8.03 | solubility [6]: 19 µg/mL (≈ 33.1 µM); pIC50 (HUVEC [8]): 7.42; pIC50 (HUVEC [7]): 7.70
CN1CCC(Oc2ccc(NC(=O)Nc3ccc(Oc4ncnc5ccn(C)c45)cc3Cl)cc2C(F)(F)F)CC1 | 7.92 | –
COc1cc(NC(=O)Nc2ccc(Oc3ncnc4ccn(C)c34)cc2Cl)cc(C(F)(F)F)c1 | 7.70 | –
Cn1ccc2ncnc(Oc3ccc(NC(=O)Nc4cc(N5CCOCC5)cc(C(F)(F)F)c4)c(Cl)c3)c21 | 7.22 | –
Cn1ccc2ncnc(Oc3ccc(NC(=O)Nc4cc(CN5CCOCC5)cc(C(F)(F)F)c4)c(Cl)c3)c21 | 7.64 | –
CN1CCN(Cc2cc(NC(=O)Nc3ccc(Oc4ncnc5ccn(C)c45)cc3Cl)cc(C(F)(F)F)c2)CC1 | 7.96 | –
Cn1c(CO)cc2ncnc(Oc3ccc(NC(=O)Nc4cccc(C(F)(F)F)c4)c(Cl)c3)c21 | 8.01 | –
